Results taken from ChEMBL document CHEMBL1136912, “Synthesis and in vivo influenza virus-inhibitory effect of ester prodrug of 4-guanidino-7-O-methyl-Neu5Ac2en” (Bioorg Med Chem Lett, 2009).

Test: Inhibition of Tamiflu-resistant Influenza A virus (A/Yokohama/67/2006 (H1N1)) sialidase

| Compound | IC50 [nM] |
| --- | --- |
| CC(=O)N[C@H]1[C@H]([C@H](O)[C@H](O)CO)OC(C(=O)O)=C[C@@H]1NC(=N)N [ZANAMIVIR] | 3.05 |
| CO[C@@H]([C@@H]1OC(C(=O)O)=C[C@H](NC(=N)N)[C@H]1NC(C)=O)[C@H](O)CO [LANINAMIVIR] | 5.62 |
